Test results taken from patent publication US7531320B2, “Modulation of β-catenin/TCF-activated transcription” (priority 2003, dated 2009).

Target: T1, p300 (1-111) (Homo sapiens, UniProt Q09472)
T1 construct: 6xHis (C); HSV tag (C); expressed in transfected cells
Assay: Pull-down of p300 deletion constructs on COMPOUND 2 coated beads, competition with excess COMPOUND 1
Assay type: binding
Settings: p300 (1-111), (1-211), (1-351) in SW480 lysates, 150 μM COMPOUND 1
Experimental: FIG. 2. The first 111 amino acids of CBP, but not p300, specifically bind COMPOUND 1. • A. Schematic representation of the wild-type and deletion constructs for CBP. • B. CBP (1-111) contains the minimal binding domain of COMPOUND 1. Expression levels of CBP deletion constructs in SW480 cells are shown (upper panel). 10 μg of total protein was subjected to gel electrophoresis and subjected to immunoblotting using anti-His antibodies. Whole cell lysates of SW480 cells expressing CBP deletion constructs were bound to streptavidin-agarose beads coated with 100 μM of COMPOUND 2. The bound fractions were subjected to gel electrophoresis and immunoblotting using anti-His antibodies (lower panel). Arrows point to constructs which remained bound to COMPOUND 2 coated beads. • C. […] CBP deletion constructs, CBP(1-111),CBP (1-211), and CBP (1-351) and p300 deletion constructs, p300 (1-111), p300 (1-211), and p300 (1-351) were transfected into SW480 cells. Whole cell lysates were incubated with streptavidin-agarose beads or streptavidin-agarose beads coated with 100 μM COMPOUND 2 (lower panel). The binding of CBP constructs (1-111,1-211, and 1-351) and p300 constructs (1-111,1-211, and 1-351) to the beads was challenged with excess COMPOUND 1 (150 μM). • D. CBP (1-111) binds to COMPOUND 1 in a phosphorylation independent manner. […]

T1 sequence (Q09472 1-117): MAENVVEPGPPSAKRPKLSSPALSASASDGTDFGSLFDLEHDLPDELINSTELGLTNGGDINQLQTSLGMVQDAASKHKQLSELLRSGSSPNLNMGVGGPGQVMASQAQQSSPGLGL

With `O=C1C(Cc2ccc(O)cc2)N2C(=O)CCN(C(=O)NCc3ccccc3)C2CN1Cc1cccc2ccccc12` (stereo not shown) [COMPOUND 1] the “Competition of p300 fragment binding to COMPOUND 2 beads by excess COMPOUND 1” value was “failed to have any effect”.
